Where “and” joins values, the source holds several entries; their conditions need not be identical. Equal values may be shown once.
Legend:
[1] = tested on: rats; conditions: cited from earlier work
[2] = tested on: rats; conditions: cited from earlier work; remark: listed apart in the source
[3] = tested on: rats; conditions: cited from earlier work; remark: listed apart in the source
[4] = target: PDE10A enzyme (Homo sapiens (Human), UniProt Q9Y233); assay: PDE10A inhibition assay; assay type: biochemical; conditions: tritium labeled cAMP 5 nM
PDE10A enzyme, sequence (Q9Y233 716-1055): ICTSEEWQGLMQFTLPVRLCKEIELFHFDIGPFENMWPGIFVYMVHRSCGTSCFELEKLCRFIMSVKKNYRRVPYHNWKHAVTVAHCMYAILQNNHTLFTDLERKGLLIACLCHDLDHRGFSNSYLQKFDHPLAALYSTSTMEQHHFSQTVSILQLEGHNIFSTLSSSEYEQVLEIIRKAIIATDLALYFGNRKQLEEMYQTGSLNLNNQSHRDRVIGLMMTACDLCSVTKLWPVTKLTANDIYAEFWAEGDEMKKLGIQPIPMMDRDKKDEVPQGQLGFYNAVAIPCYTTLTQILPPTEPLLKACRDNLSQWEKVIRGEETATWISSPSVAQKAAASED
Protocol: Active PDE10A enzyme is prepared in a number of ways for use in PDE assays (Loughney, K. et al. Gene 1999, 234, 109-117; Fujishige, K. et al. Eur J Biochem. 1999, 266, 1118-1127 and Soderling, S. et al. Proc. Natl. Acad. Sci. 1999, 96, 7071-7076). PDE10A can be expressed as full-length proteins or as truncated proteins, as long as they express the catalytic domain. PDE10A can be prepared in different cell types, for example insect cells or E. coli. An example of a method to obtain catalytically active PDE10A is as follows: The catalytic domain of human PDE10A (amino acids 440-779 from the sequence with accession number NP 006652) is amplified from total human brain total RNA by standard RT-PCR and is cloned into the BamH1 and Xho1 sites of the pET28a vector (Novagen). Expression in coli is performed according to standard protocols. Briefly, the expression plasmids are transformed into the BL21(DE3) E. coli strain, and 50 mL cultures inoculated with the cells allowed to grow to an OD600 of 0.4-0.6 before protein expression is induced with 0.5 mM IPTG. Following induction, the cells are incubated overnight at room temperature, after which the cells are collected by centrifugation. Cells expressing PDE10A are resuspended in 12 mL (50 mM TRIS-HCl-pH8.0, 1 mM MgCl2 and protease inhibitors). The cells are lysed by sonication, and after all cells are lysed, TritonX100 is added according to Novagen protocols.
A PDE10A assay may for example, be performed as follows: The assay is performed in 60 uL samples containing a fixed amount of the relevant PDE enzyme (sufficient to convert 20-25% of the cyclic nucleotide substrate), a buffer (50 mM HEPES7.6; 10 mM MgCl2; 0.02% Tween20), 0.1 mg/ml BSA, 225 pCi of ^3H-labelled cyclic nucleotide substrate, tritium labeled cAMP to a final concentration of 5 nM and varying amounts of inhibitors. Reactions are initiated by addition of the cyclic nucleotide substrate, and reactions are allowed to proceed for one hr at room temperature before being terminated through mixing with 15 uL 8 mg/mL yttrium silicate SPA beads (Amersham). The beads are allowed to settle for one hr in the dark before the plates are counted in a Wallac 1450 Microbeta counter. The measured signal can be converted to activity relative to an uninhibited control (100%) and IC50 values can be calculated using the XIfit extension to EXCEL.

| Compound | IC50 [4] | other results |
| --- | --- | --- |
| COc1ccc(Cc2nccc3cc(OC)c(OC)cc23)cc1OC [Papaverine, papaverine] |  | catalepsy on its own ([1]; papaverine alone): did not cause catalepsy on its own; cataleptic effect of the D2 receptor antagonist haloperidol ([1]; together with haloperidol): potentiated the cataleptic effect; hyperactivity induced by PCP [2]: reduced hyperactivity; reduction of amphetamine induced hyperactivity [3]: insignificant |
| Cc1ncc(C)n2nc(CCc3ccc4cc5c(cc4n3)OCCO5)nc12 [7-[2-(5,8-Dimethyl-[1,2,4]triazolo[1,5-a]pyrazin-2-yl)-ethyl]-2,3-dihydro-[1,4]dioxino[2,3-g]quinoline] | 4 nM |  |
| COc1cc(CCc2nc3c(C)ncc(C)n3n2)nc2ccccc12 [2-[2-(5,8-Dimethyl-[1,2,4]triazolo[1,5-a]pyrazin-2-yl)-ethyl]-4-methoxy-quinoline] | 12 nM |  |
| Cc1cc(Cl)c2nc(CCc3nc4c(C)ncc(C)n4n3)ccc2c1 [8-Chloro-2-[2-(5,8-dimethyl-[1,2,4]triazolo[1,5-a]pyrazin-2-yl)-ethyl]-6-methyl-quinoline] | 290 nM |  |
| Cc1ncc(C)n2nc(CCc3ccc4cc(Cl)ccc4n3)nc12 [6-Chloro-2-[2-(5,8-dimethyl-[1,2,4]triazolo[1,5-a]pyrazin-2-yl)-ethyl]-quinoline] | 42 nM |  |
| Cc1cc(C)n2cc(/C=C\c3ccc4ccccc4n3)nc2n1 [2-[(Z)-2-(5,7-Dimethyl-imidazo[1,2-a]pyrimidin-2-yl)-vinyl]-quinoline] | 240 nM |  |
| Cc1ncc(C)n2nc(/C=C/c3ccc4cc(OC(F)(F)F)ccc4n3)nc12 [2-[(E)-2-(5,8-Dimethyl-[1,2,4]triazolo[1,5-a]pyrazin-2-yl)-vinyl]-6-trifluoromethoxy-quinoline] | 2800 nM |  |
| Cc1ncc(C)n2nc(CCc3ccc4cc(F)ccc4n3)nc12 [2-[2-(5,8-Dimethyl-[1,2,4]triazolo[1,5-a]pyrazin-2-yl)-ethyl]-6-fluoro-quinoline] | 24 nM and 26 nM |  |
| COc1ccc(C)n2nc(CCc3cc(C)c4ccccc4n3)nc12 [2-[2-(8-Methoxy-5-methyl-[1,2,4]triazolo[1,5-a]pyridin-2-yl)-ethyl]-4-methyl-quinoline] | 42 nM |  |
| COc1cc(CCc2nc3c(OC)ccc(C)n3n2)nc2ccccc12 [4-Methoxy-2-[2-(8-methoxy-5-methyl-[1,2,4]triazolo[1,5-a]pyridin-2-yl)-ethyl]-quinoline] | 35 nM |  |
| CCc1ccc(C)n2nc(CCc3ccc4cc(F)ccc4n3)nc12 [2-[2-(8-Ethyl-5-methyl-[1,2,4]triazolo[1,5-a]pyridin-2-yl)-ethyl]-6-fluoro-quinoline] | 25 nM |  |
| Cc1ncc(C)n2nc(CCc3cc(O)c4ccc(F)cc4n3)nc12 [2-[2-(5,8-Dimethyl-[1,2,4]triazolo[1,5-a]pyrazin-2-yl)-ethyl]-7-fluoro-quinolin-4-ol] | 500 nM |  |
